Measurements: patent publication US8008303B2, “Biphenyl derivatives and their use in treating hepatitis C” (AstraZeneca AB, priority 2005, dated 2011)
Like-named read-outs stand apart in the source and are kept apart here.

Assays:
[1] = system: HCV replicon cells Huh 9B; assay type: cell-based
Method: (§1) HCV replicon cells Huh 9B (ReBlikon), containing the firefly luciferase-ubiquitin-neomycin phosphotransferase fusion protein and EMCV-IRES driven HCV polyprotein with cell culture adaptive mutations.
A flask of cells was trypsinised and a cell count carried out. […] Wells G12 and H12 were left empty in the clear plate as the blank. Plates were then incubated at 37° C. in a 5% CO2 environment for 24 h.
(§2) On the following day compound dilutions are made up in medium at twice their desired final concentration in a clear round bottomed plate. All dilutions have a final DMSO concentration of 1%.
Exception: no compound was added to wells A1 and A2 of either plate and 100 μl of 1% DMSO was added to these instead. Plates were then incubated at 37° C. with 5% CO2 for 72 h.
The clear plate was stained with 100 μl 0.5% methylene blue in 50% ethanol at room temperature for 1 h, followed by solvation of the absorbed methylene blue in 100 μl per well of 1% lauroylsarcosine. Absorbance of the plate was measured on a microplate spectrophotometer (Molecular Devices) and the absorbance for each concentration of compound expressed as a proportion of the relative DMSO control.

[2] = system: HCV replicon cells Huh 9B; assay: HCV replicon assay (luciferase readout); assay type: cell-based
Method: as §1
Cells were cultured at 37° C. in a 5% CO2 environment and split twice a week on seeding at 2×10^6 cells/flask on day 1 and 1×10^6 3 days later. G418 at 0.5 mg/ml was added to the culture medium but not the assay medium.
The culture medium consisted of DMEM with […] glucose and glutamax (Gibco 61965-026) supplemented with 1× non-essential amino acids (Invitrogen 11140-035), penicillin (100 IU/ml)/streptomycin (100 μg/ml) (Invitrogen 15140-122), FCS (10%, 50 ml) and 1 mg/ml G418 (Invitrogen 10131-027) & 10% Australian foetal calf serum (Invitrogen 10099-141).
A flask of cells was trypsinised and a cell count carried out. Cells were diluted to 100,000 cells/ml and 100 μl of this used to seed one opaque white 96-well plate (for the replicon assay) and one flat-bottomed clear plate (for the tox assay) for every seven compounds to be tested for IC50. Wells G12 and H12 were left empty in the clear plate as the blank. Plates were then incubated at 37° C. in a 5% CO2 environment for 24 h.
as §2
Once the dilution plate had been made up, controls and compounds were transferred to the assay plate (containing the cells) at 100 μl /well in duplicate plates. Exception: no compound was added to wells A1 and A2 of either plate and 100 μl of 1% DMSO was added to these instead. Plates were then incubated at 37° C. with 5% CO2 for 72 h.
At the end of the incubation time, the cells in the white plate were harvested by washing 23.5 mM beetle luciferin (Promega E1603), 26 mM ATP (Sigma 0-2060) in […] Tris buffer pH 7.8 aliquoted and stored at −80 C was thawed and diluted 1:50 in luciferase assay buffer (20 mM Tricine (Sigma T-0377), 1.07 mM magnesium carbonate hydroxide (Sigma M-5671), 0.1 mM EDTA (Sigma E-5134), 2.67 mM MgSO4 (BDH 101514Y), 33.3 mM dithiothreitol (Sigma 150460) pH 7.8).
The M injector of the microplate luminometer (Lmax, Molecular Devices) was primed with 5×300 μl injections of the diluted substrate. After 5-60 min incubation in lysis buffer at room temperature, a plate was inserted into the luminometer and 100 μl luciferase assay reagent was added by the injector on the luminometer. The signal was measured using a 1 second delay followed by a 4 second measurement programme.

Row | SMILES | TD50 [1] | IC50 [2] | TD50 ([1]; concentration reducing total cell area by 50% relative to DMSO controls, methylene blue, absorbance 620 nm, 72 h incubation) | IC50 ([2]; Hepatitis C virus, 72 h, concentration reducing replicon level (luciferase activity) by 50% vs untreated cell control, 72 h incubation)
1 | Cc1ccc(C(=O)Nc2ccc(N3CCOCC3)cc2)cc1-c1ccc(C(=O)NCc2cccc(OC(F)(F)F)c2)cc1 [Example 41, 6-Methyl-biphenyl-3,4′-dicarboxylic acid 3-[(4-morpholin-4-yl-phenyl)-amide] 4′-(3-trifluoromethoxy-benzylamide)] | ** (key: * < 50 μM; ** > 50 μM) | < 1 µM | – | –
2 | Cc1ccc(C(=O)Nc2ccc(N3CCOCC3)cc2)cc1-c1ccc(C(=O)NCc2ccc(Cl)c(C(F)(F)F)c2)cc1 [Example 42, 6-Methyl-biphenyl-3,4′-dicarboxylic acid 4′-(4-chloro-3-trifluoromethyl-benzylamide) 3-[(4-morpholin-4-yl-phenyl)-amide]] | ** (key: * < 50 μM; ** > 50 μM) | < 1 µM | – | –
3 | Cc1ccc(CNC(=O)c2ccc(-c3cc(C(=O)Nc4ccc(N5CCOCC5)cc4)ccc3C)cc2)cc1Cl [Example 43, 6-Methyl-biphenyl-3,4′-dicarboxylic acid 4′-(3-chloro-4-methyl-benzylamide) 3-[(4-morpholin-4-yl-phenyl)-amide]] | ** (key: * < 50 μM; ** > 50 μM) | < 1 µM | – | –
4 | Cc1ccc(C(=O)Nc2ccc(N3CCOCC3)cc2)cc1-c1ccc(C(=O)Nc2ccc3[nH]ccc3c2)cc1 [Example 45, 6-Methyl-biphenyl-3,4′-dicarboxylic acid 4′-[(1H-indol-5-yl)-amide] 3-[(4-morpholin-4-yl-phenyl)-amide]] | ** (key: * < 50 μM; ** > 50 μM) | 1 to 5 µM | – | –
5 | Cc1ccc(C(=O)Nc2ccc(N3CCOCC3)cc2)cc1-c1ccc(C(=O)Nc2ccc3ncsc3c2)cc1 [Example 46, 6-Methyl-biphenyl-3,4′-dicarboxylic acid 4′-benzothiazol-6-ylamide 3-[(4-morpholin-4-yl-phenyl)-amide]] | ** (key: * < 50 μM; ** > 50 μM) | > 5 µM | – | –
6 | Cc1ccc(C(=O)Nc2ccc(N3CCOCC3)cc2)cc1-c1ccc(C(=O)NCc2cccc(CNC(=O)OC(C)(C)C)c2)cc1 [Example 47, [3-({[2′-Methyl-5′-(4-morpholin-4-yl-phenylcarbamoyl)-biphenyl-4-carbonyl]-amino}-methyl)-benzyl]-carbamic acid tert-butyl ester] | – | – | ** (** > 50 μM) | > 5 µM
7 | Cc1ccc(C(=O)Nc2ccc(N3CCOCC3)cc2)cc1-c1ccc(C(=O)Nc2cccc3cc[nH]c23)cc1 [Example 48, 6-Methyl-biphenyl-3,4′-dicarboxylic acid 4′-[(1H-indol-7-yl)-amide] 3-[(4-morpholin-4-yl-phenyl)-amide]] | ** (key: * < 50 μM; ** > 50 μM) | 1 to 5 µM | – | –
8 | Cc1ccc(C(=O)Nc2ccc(N3CCOCC3)cc2)cc1-c1ccc(C(=O)NCc2ccccc2Sc2ccccc2CO)cc1 [Example 49, 6-Methyl-biphenyl-3,4′-dicarboxylic acid 4′-[2-(2-hydroxymethyl-phenylsulfanyl)-benzylamide] 3-[(4-morpholin-4-yl-phenyl)-amide]] | ** (key: * < 50 μM; ** > 50 μM) | < 1 µM | – | –
9 | Cc1ccc(C(=O)Nc2ccc(N3CCOCC3)cc2)cc1-c1ccc(C(=O)Nc2ccc(CN3CCS(=O)(=O)CC3)cc2)cc1 [Example 50, 6-Methyl-biphenyl-3,4′-dicarboxylic acid 4′-{[4-(1,1-dioxo-1lambda*6*-thiomorpholin-4-ylmethyl)-phenyl]-amide} 3-[(4-morpholin-4-yl-phenyl)-amide]] | ** (key: * < 50 μM; ** > 50 μM) | < 1 µM | – | –
10 | Cc1ccc(C(=O)Nc2ccc(N3CCOCC3)cc2)cc1-c1ccc(C(=O)N[C@H](CO)Cc2c[nH]c3ccccc23)cc1 [Example 51, 6-Methyl-biphenyl-3,4′-dicarboxylic acid 4′-{[(S)-1-hydroxymethyl-2-(1H-indol-3-yl)-ethyl]-amide} 3-[(4-morpholin-4-yl-phenyl)-amide]] | ** (key: * < 50 μM; ** > 50 μM) | 1 to 5 µM | – | –
11 | Cc1ccc(C(=O)Nc2ccc(N3CCOCC3)cc2)cc1-c1ccc(C(=O)NCc2cccc(Br)c2)cc1 [Example 52, 6-Methyl-biphenyl-3,4′-dicarboxylic acid 4′-(3-bromo-benzylamide) 3-[(4-morpholin-4-yl-phenyl)-amide]] | ** (key: * < 50 μM; ** > 50 μM) | 1 to 5 µM | – | –
12 | Cc1ccc(C(=O)Nc2ccc(N3CCOCC3)cc2)cc1-c1ccc(C(=O)Nc2ccc(N)cc2)cc1 [Example 53, 6-Methyl-biphenyl-3,4′-dicarboxylic acid 4′-[(4-amino-phenyl)-amide] 3-[(4-morpholin-4-yl-phenyl)-amide]] | ** (key: * < 50 μM; ** > 50 μM) | 1 to 5 µM | – | –
13 | CNS(=O)(=O)Cc1ccc(NC(=O)c2ccc(-c3cc(C(=O)Nc4ccc(N5CCOCC5)cc4)ccc3C)cc2)cc1 [Example 54, 6-Methyl-biphenyl-3,4′-dicarboxylic acid 4′-[(4-methylsulfamoylmethyl-phenyl)-amide] 3-[(4-morpholin-4-yl-phenyl)-amide]] | ** (key: * < 50 μM; ** > 50 μM) | 1 to 5 µM | – | –
14 | Cc1ccc(C(=O)Nc2ccc(N3CCOCC3)cc2)cc1-c1ccc(C(=O)Nc2cc(Br)cc3cc[nH]c23)cc1 [Example 55, 6-Methyl-biphenyl-3,4′-dicarboxylic acid 4′-[(5-bromo-1H-indol-7-yl)-amide] 3-[(4-morpholin-4-yl-phenyl)-amide]] | ** (key: * < 50 μM; ** > 50 μM) | 1 to 5 µM | – | –
15 | Cc1ccc(C(=O)Nc2ccc(N3CCOCC3)cc2)cc1-c1ccc(C(=O)Nc2ccc(-c3cc[nH]n3)cc2)cc1 [Example 56, 6-Methyl-biphenyl-3,4′-dicarboxylic acid 3-[(4-morpholin-4-yl-phenyl)-amide] 4′-{[4-(1H-pyrazol-3-yl)-phenyl]-amide}] | * (key: * < 50 μM; ** > 50 μM) | < 1 µM | – | –
16 | Cc1ccc(C(=O)Nc2ccc(N3CCOCC3)cc2)cc1-c1ccc(C(=O)NCc2cccc(Cl)c2F)cc1 [Example 57, 6-Methyl-biphenyl-3,4′-dicarboxylic acid 4′-(3-chloro-2-fluoro-benzylamide) 3-[(4-morpholin-4-yl-phenyl)-amide]] | ** (key: * < 50 μM; ** > 50 μM) | 1 to 5 µM | – | –
17 | Cc1ccc(C(=O)Nc2ccc(N3CCOCC3)cc2)cc1-c1ccc(C(=O)Nc2ccc(C(=O)N3CCCCC3)cc2)cc1 [Example 58, 6-Methyl-biphenyl-3,4′-dicarboxylic acid 3-[(4-morpholin-4-yl-phenyl)-amide] 4′-{[4-(piperidine-1-carbonyl)-phenyl]-amide}] | ** (key: * < 50 μM; ** > 50 μM) | 1 to 5 µM | – | –
18 | O=C(Nc1ccc2[nH]ccc2c1)c1ccc(-c2cccc(C(=O)Nc3ccc(N4CCOCC4)cc3)c2)cc1 [Example 59, Biphenyl-3,4′-dicarboxylic acid 4′-[(1H-indol-5-yl)-amide] 3-[(4-morpholin-4-yl-phenyl)-amide]] | ** (key: * < 50 μM; ** > 50 μM) | 1 to 5 µM | – | –
19 | O=C(Nc1ccc2cc[nH]c2c1)c1ccc(-c2cccc(C(=O)Nc3ccc(N4CCOCC4)cc3)c2)cc1 [Example 60, Biphenyl-3,4′-dicarboxylic acid 4′-[(1H-indol-6-yl)-amide] 3-[(4-morpholin-4-yl-phenyl)-amide]] | * (key: * < 50 μM; ** > 50 μM) | < 1 µM | – | –
20 | CC(=O)Nc1cccc(NC(=O)c2ccc(-c3cc(C(=O)Nc4ccc(N5CCOCC5)cc4)ccc3C)cc2)c1 [Example 61, 6-Methyl-biphenyl-3,4′-dicarboxylic acid 4′-[(3-acetylamino-phenyl)-amide] 3-[(4-morpholin-4-yl-phenyl)-amide]] | ** (key: * < 50 μM; ** > 50 μM) | 1 to 5 µM | – | –
